Experimental data from patent US9580429B2, “Pyrrolo[3,2-D]pyrimidin-4-one derivatives and their use in therapy” (ASTRAZENECA AB, priority 2004, dated 2017).

Biological target: T1, human MPO (Homo sapiens, UniProt P05164)
T1 sequence (P05164 49-745): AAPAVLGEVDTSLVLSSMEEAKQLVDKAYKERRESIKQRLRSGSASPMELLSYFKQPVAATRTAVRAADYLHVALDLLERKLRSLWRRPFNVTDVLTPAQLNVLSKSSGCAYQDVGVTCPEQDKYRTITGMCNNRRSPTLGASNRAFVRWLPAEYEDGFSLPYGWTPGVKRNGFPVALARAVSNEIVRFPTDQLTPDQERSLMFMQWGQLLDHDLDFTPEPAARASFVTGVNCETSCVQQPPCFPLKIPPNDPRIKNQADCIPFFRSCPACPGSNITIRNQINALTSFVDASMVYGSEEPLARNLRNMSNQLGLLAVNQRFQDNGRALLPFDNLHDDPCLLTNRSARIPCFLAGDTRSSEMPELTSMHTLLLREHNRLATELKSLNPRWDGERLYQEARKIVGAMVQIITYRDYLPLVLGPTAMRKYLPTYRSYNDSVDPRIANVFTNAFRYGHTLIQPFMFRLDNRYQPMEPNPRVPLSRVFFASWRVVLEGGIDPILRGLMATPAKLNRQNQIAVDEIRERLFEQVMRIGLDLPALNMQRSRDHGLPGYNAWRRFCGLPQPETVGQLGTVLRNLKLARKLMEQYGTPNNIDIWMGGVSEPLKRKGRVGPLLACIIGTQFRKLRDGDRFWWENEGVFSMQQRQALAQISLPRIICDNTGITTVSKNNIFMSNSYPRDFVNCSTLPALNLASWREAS
Test: MPO inhibition screen (TMB oxidation, absorbance)
Assay type: biochemical
Settings: in the presence of tyrosine (final 8 μM); human MPO 2.5 nM; H2O2 100 μM
Description: Methods for the determination of MPO inhibitory activity are disclosed in patent application WO 02/090575. The pharmacological activity of compounds according to the invention was tested in the following screen in which the compounds were either tested alone or in the presence of added tyrosine:
Assay buffer: 20 mM sodium/potassium phosphate buffer pH 6.5 containing 10 mM taurine and 100 mM NaCl.
Developing reagent: 2 mM 3,3′,5,5′-tetramethylbenzidine (TMB), 200 μM KI, 200 mM acetate buffer pH 5.4 with 20% DMF.
To 10 μl of diluted compounds in assay buffer, 40 μl of human MPO (final concentration 2.5 nM), with or without 20 μM tyrosine (final concentration, if present, 8 μM), was added and the mixture was incubated for 10 minutes at ambient temperature. Then 50 μl of H2O2 (final concentration 100 μM), or assay buffer alone as a control, were added. After incubation for 10 minutes at ambient temperature, the reaction was stopped by adding 10 μl 0.2 mg/ml of catalase (final concentration 18 μg/ml). The reaction mixture was left for an additional 5 minutes before 100 μl of TMB developing reagent was added. The amount of oxidised 3,3′,5,5′-tetramethylbenzidine formed was then measured after about 5 minutes using absorbance spectroscopy at about […]. IC50 values were then determined using standard procedures.

IC50 | SMILES
0.26 µM | CC(C)Cn1c(=S)[nH]c(=O)c2[nH]ccc21 [Example 2, 1-Isobutyl-2-thioxo-1,2,3,5-tetrahydro-pyrrolo[3,2-d]pyrimidin-4-one]
0.22 µM | CCCOc1cccc(Cn2c(=S)[nH]c(=O)c3[nH]ccc32)c1OCCOC [Example 5, 1-[2-(2-Methoxyethoxy)-3-propoxybenzyl]-2-thioxo-1,2,3,5-tetrahydro-pyrrolo[3,2-d]pyrimidin-4-one]
1.1 µM | CCOC(C)(C)Cn1c(=S)[nH]c(=O)c2[nH]ccc21 [Example 11, 1-(2-Ethoxy-2-methylpropyl)-2-thioxo-1,2,3,5-tetrahydro-pyrrolo[3,2-d]pyrimidin-4-one]
